According to patent publication EP0097202A1, “Hydrazinopyridazine compound, process for production thereof, and use thereof as medicament” (TEIKOKU HORMONE MFG. CO., LTD., priority 1982, dated 1984):
Read-outs that look alike come from different tables or passages of the source.

Legend:
Format in all cases: in vivo, male Wistar rats
[1] = vasodilating activity (hypotensive activity): maximum fall in blood pressure in anesthetized rats; conditions: maximum fall in blood pressure during 40 minutes after 1 mg/kg i.v., three animals
Experimental: (§1) Experiments were done using male Wistar rats weighing between 300 and 400 g, anesthetized with sodium pentobarbital (60 mg/kg i.p.). The blood pressure was directly measured by connecting a cannula inserted in the femoral artery to a pressure transducer and the heart rate was calculated from the pulse waves of the blood pressure tracings. Each value shown here was obtained from three animals. The test compounds were individually dissolved in physiological saline solution or a 0.01 N aqueous solution of hydrochloric acid.
Each test compound dissolved in physiological saline solution or 0.01 N hydrochloric acid was intravenously injected into rats in a fixed dose of 1 mg/kg and the blood pressure was continuously monitored for 40 minutes. The maximum fall in blood pressure during this period was determined and taken as the hypotensive activity of each compound.

[2] = target: T1, β1-adrenoceptors (Rattus norvegicus, UniProt P18090); experiment: β-adrenoceptor blocking activity: inhibition of the isoproterenol-induced increase in heart rate in anesthetized rats; conditions: iv, 0.05 h
T1 construct: Experiments were done using male Wistar rats weighing between 300 and 400 g, anesthetized with sodium pentobarbital; from tissue; host or cells: whole animal (anesthetized male Wistar rats), cardiac response in vivo
T1 sequence (P18090 whole entry): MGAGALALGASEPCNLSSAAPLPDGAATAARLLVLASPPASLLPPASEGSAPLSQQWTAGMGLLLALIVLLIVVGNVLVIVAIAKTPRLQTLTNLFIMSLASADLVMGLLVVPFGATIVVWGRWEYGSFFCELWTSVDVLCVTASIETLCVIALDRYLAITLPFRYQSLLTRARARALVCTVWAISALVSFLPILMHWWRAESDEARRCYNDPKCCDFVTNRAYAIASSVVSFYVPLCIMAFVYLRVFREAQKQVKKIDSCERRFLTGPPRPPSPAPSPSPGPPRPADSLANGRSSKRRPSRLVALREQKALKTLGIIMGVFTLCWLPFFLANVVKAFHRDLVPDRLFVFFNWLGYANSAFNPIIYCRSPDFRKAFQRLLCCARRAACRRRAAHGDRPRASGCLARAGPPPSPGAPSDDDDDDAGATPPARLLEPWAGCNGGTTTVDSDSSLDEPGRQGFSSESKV
Experimental: as §1
The increased heart rate before injection of the test compound was represented by H1. Three minutes after i.v. injection of the test compound, isoproterenol (0.1 µg/kg i.v.) was again administered and then the change in heart rate was measured. The maximum increase in heart rate after injection of the test compound was designated as H2. From these values, the percent inhibition of the change in heart rate was calculated in accordance with the following equation.
Percent inhibition of the heart rate [formula]
(§2) By repeating the procedure mentioned above at various doses of the test compounds, dose-response curves were prepared.

[3] = test system: β2-adrenoceptor; experiment: β-adrenoceptor blocking activity: inhibition of the isoproterenol-induced fall in blood pressure in anesthetized rats; conditions: 50 % inhibition of fall in blood pressure by isoproterenol 0.1 µg/kg i.v.
Experimental: as §1, §2

[4] = read-out: β-adrenoceptor blocking action ID50

## CC(C)(COc1ccc(NN)nn1)NCC(O)COc1ccccc1 (stereo not shown) [A, 1-penoxy-3-[1,1-dimethyl-2-(3-hydrozino-6-pyridazinyloxy)ethylamino]-2-propanol]
[1]
  Hypotensive action: ++ (a fall in blood pressure of 25 to 34 mmHg)
[2]; [4]
  ED50: 0.04 mg/kg

## CC(C)NCC(O)COc1ccc(CC(N)=O)cc1 (stereo not shown) [Atenolol, reference compound]
[2]; read-out: β-adrenoceptor blocking action ID50 β1
  ED50: 0.05 mg/kg
[3]
  β-adrenoceptor blocking action ID50 β2: 1.5 mg/kg i.v.

## CC(C)(COc1ccc(NN)nn1)NCC(O)COc1ccccc1Cl (stereo not shown) [B, 1-(2-chlorophenoxy)-3-[1,1-dimethyl-2-(3-hydrozino-6-pyridazinyloxy)ethylamino]-2-propanol]
[1]
  Hypotensive action: +++ (35 mmHg or more)
[2]; [4]
  ED50: 0.008 mg/kg
[3]
  β-adrenoceptor blocking action ID50 β2: 0.23 mg/kg i.v.

## Cc1ccccc1OCC(O)CNC(C)(C)COc1ccc(NN)nn1 (stereo not shown) [C, 1-(2-methylphenoxy)-3-[1,1-dimethyl-2-(3-hydrazino-6-pyridazinyloxy)ethylamino]-2-propanol]
[1]
  Hypotensive action: +++ (35 mmHg or more)
[2]; [4]
  ED50: 0.015 mg/kg
[3]
  β-adrenoceptor blocking action ID50 β2: 0.45 mg/kg i.v.

## CCc1ccccc1OCC(O)CNC(C)(C)COc1ccc(NN)nn1 (stereo not shown) [D, 1-(2-ethylphenoxy)-3-[1,1-dimethyl-2-(3-hydrazino-6-pyridazinyloxy)ethylamino]-2-propanol]
[1]
  Hypotensive action: +++ (35 mmHg or more)
[2]; [4]
  ED50: 0.2 mg/kg

## CCCc1ccccc1OCC(O)CNC(C)(C)COc1ccc(NN)nn1 (stereo not shown) [E, 1-(2-propylphenoxy)-3-[1,1-dimethyl-2-(3-hydrazino-6-pyridazinyloxy)ethylamino]-2-propanol]
[1]
  Hypotensive action: ++ (a fall in blood pressure of 25 to 34 mmHg)
[2]; [4]
  ED50: 0.2 mg/kg

## Cc1cccc(OCC(O)CNC(C)(C)COc2ccc(NN)nn2)c1Cl (stereo not shown) [F, 1-(2-chloro-3-methylphenoxy)-3-[1,1-dimethyl-2-(3-hydrazino-6-pyridazinyloxy)ethylamino]-2-propanol]
[1]
  Hypotensive action: ++ (a fall in blood pressure of 25 to 34 mmHg)
[2]; [4]
  ED50: 0.08 mg/kg

## CC(C)=NNc1ccc(OCC(C)(C)NCC(O)COc2cc(C)ccc2Cl)nn1 (stereo not shown) [G, 1-(2-chloro-5-methylphenoxy)-3-[1,1-dimethyl-2-(3-isopropylidenehydrazino-6-pyridazinyloxy)ethylamino]-2-propanol]
[1]
  Hypotensive action: ++ (a fall in blood pressure of 25 to 34 mmHg)
[2]; [4]
  ED50: 0.15 mg/kg

## Cc1ccc(Cl)c(OCC(O)CNC(C)(C)COc2ccc(NN)nn2)c1 (stereo not shown) [H, 1-(2-chloro-5-methylphenoxy)-3-[1,1-dimethyl-2-(3-hydrazino-6-pyridazinyloxy)ethylamino]-2-propanol]
[1]
  Hypotensive action: ++ (a fall in blood pressure of 25 to 34 mmHg)
[2]; [4]
  ED50: 0.15 mg/kg

## CC(C)(COc1ccc(NN)nn1)NCC(O)COc1ccccc1C#N (stereo not shown) [I, 1-(2-cyanophenoxy)-3-[1,1-dimethyl-2-(3-hydrazino-6-pyridazinyloxy)ethylamino]-2-propanol]
[1]
  Hypotensive action: +++ (35 mmHg or more)
[2]; [4]
  ED50: 0.02 mg/kg
[3]
  β-adrenoceptor blocking action ID50 β2: 0.1 mg/kg i.v.

## CC(C)(COc1ccc(NN)nn1)NCC(O)COc1cc(Cl)ccc1C#N (stereo not shown) [J, 1-(2-cyano-5-chlorophenoxy)-3-[1,1-dimethyl-2-(3-hydrazino-6-pyridazinyloxy)ethylamino]-2-propanol]
[1]
  Hypotensive action: ++ (a fall in blood pressure of 25 to 34 mmHg)
[2]; [4]
  ED50: 0.12 mg/kg

## Cc1ccc(C#N)c(OCC(O)CNC(C)(C)COc2ccc(NN)nn2)c1 (stereo not shown) [K, 1-(2-cyano-5-methylphenoxy)-3-[1,1-dimethyl-2-(3-hydrazino-6-pyridazinyloxy)ethylamino]-2-propanol]
[1]
  Hypotensive action: +++ (35 mmHg or more)
[2]; [4]
  ED50: 0.05 mg/kg
[3]
  β-adrenoceptor blocking action ID50 β2: 0.1 mg/kg i.v.

## COCc1ccccc1OCC(O)CNC(C)(C)COc1ccc(NN)nn1 (stereo not shown) [L, 1-(2-methoxymethylphenoxy)-3-[1,1-dimethyl-2-(3-hydrazino-6-pyridazinyloxy)ethylamino]-2-propanol]
[1]
  Hypotensive action: +++ (35 mmHg or more)
[2]; [4]
  ED50: 0.03 mg/kg

## CCOCc1ccccc1OCC(O)CNC(C)(C)COc1ccc(NN)nn1 (stereo not shown) [M, 1-(2-ethoxymethylphenoxy)-3-[1;1-dimethyl-2-(3-hydrazino-6-pyridazinyloxy)ethylamino]-2-propanol]
[1]
  Hypotensive action: ++ (a fall in blood pressure of 25 to 34 mmHg)
[2]; [4]
  ED50: 0.06 mg/kg

## COCCc1ccccc1OCC(O)CNC(C)(C)COc1ccc(NN)nn1 (stereo not shown) [N, 1-[2-(2-methoxyethyl)phenoxy]-3-[1,1-dimethyl-2-(3-hydrazino-6-pyridazinyloxy)ethylamino]-2-propanol]
[1]
  Hypotensive action: +++ (35 mmHg or more)
[2]; [4]
  ED50: 0.08 mg/kg

## CCOCCc1ccccc1OCC(O)CNC(C)(C)COc1ccc(NN)nn1 (stereo not shown) [O]
[1]
  Hypotensive action: ++ (a fall in blood pressure of 25 to 34 mmHg)
[2]; [4]
  ED50: 0.16 mg/kg

## C=CCOc1ccccc1OCC(O)CNC(C)(C)COc1ccc(NN)nn1 (stereo not shown) [P, 1-(2-allyloxyphenoxy)-3-[1,1-dimethyl-2-(3-hydrazino-6-pyridazinyloxy)ethylamino]-2-propanol]
[1]
  Hypotensive action: ++ (a fall in blood pressure of 25 to 34 mmHg)
[2]; [4]
  ED50: 0.1 mg/kg

## Cc1ccccc1OCC(O)CNC(C)(C)CSc1ccc(NN)nn1 (stereo not shown) [Q, 1-(2-methylphenoxy)-3-[1,1-dimethyl-2-(3-hydrazino-6-pyridazinylthio)ethylamino]-2-propanol]
[1]
  Hypotensive action: ++ (a fall in blood pressure of 25 to 34 mmHg)
[2]; [4]
  ED50: 0.04 mg/kg

## C#Cc1ccccc1OCC(O)CNC(C)(C)COc1ccc(NN)nn1 (stereo not shown) [R, 1-(2-ethinylphenoxy)-3-[1,1-dimethyl-2-(3-hydrazino-6-pyridazinyloxy)ethylamino]-2-propanol]
[1]
  Hypotensive action: +++ (35 mmHg or more)
[2]; [4]
  ED50: 0.02 mg/kg
[3]
  β-adrenoceptor blocking action ID50 β2: No antagonistic action at 0.1
